Data on three compounds can be found in article PMC8875392, “Design and Characterization of Myristoylated and Non-Myristoylated Peptides Effective against Candida spp. Clinical Isolates” (International Journal of Molecular Sciences, 2022).

Series [1] in a line: Critical micellar concentration (CMC) determination with ANS fluorescent probe. It is filed as physicochemical. As to conditions: ANS fluorescence (70 μM ANS, λex 356 nm, emission 465 nm) in water, peptide 0.8–10.0 μM, 298 K, intersection of the two lines. As for the experimental part:
Lipopeptides usually self-assemble in organized structures that have attracted interest because of their enhanced bactericidal and fungicidal effects. The self-assembly of myristoylated peptides was evaluated by determining the critical micellar concentration (CMC) that represents the concentration of spontaneous associations of monomers by a spectrofluorometric method. 8-anilinonaphtalene-1-sulfonate (ANS) was used as a fluorescent probe since its fluorescence is very sensitive to the microenvironment, showing a blue shift and intensity increase upon changing from a polar to non-polar medium. Therefore, the fluorescence of ANS was monitored as a function of the lipopeptide concentration. […] Fluorescence intensity slowly increases up to a certain lipopeptide concentration and then breaks abruptly, indicating a sudden change in the aggregation state of lipopeptides. For each peptide, the critical micellar concentration (CMC) was evaluated by the intersection of the two lines. […] All the steady-state fluorescence measurements were carried out using a Perkin Elmer LS55 fluorescence spectrophotometer. All the experiments were conducted at 298 K in a thermostatic cell holder and in 20 mM phosphate buffer at pH 7.4 containing 0.8 mM EDTA and 150 mM NaCl unless otherwise specified. The CMC of the N-terminal myristoylated peptides was determined in water by fluorescence spectroscopy using 8-anilinonaphtalene-1-sulfonate (ANS) as the fluorescent probe. […] The ANS was excited at λex = 356 nm, and the fluorescence spectrum was measured for λem = 400–670 nm with excitation and emission bandwidths of 5 nm.

Series [2] is described as follows: Membrane partition, Trp-1 fluorescence upon titration with LUVs. It is filed as binding. As to conditions: for KX (mole fraction partition constant): peptide 1.0 μM, 20 mM phosphate pH 7.4, 150 mM NaCl, 0.8 mM EDTA, 298 K, Trp fluorescence, quadruplicate; for ΔG: ΔG = −RT lnKx; for Selectivity Ratio: ratio between partition constants in anionic (POPC/POPG) and zwitterionic (POPC) membranes. As for the experimental part: To quantify the interaction of different lipidated and non-lipidated peptides with membrane mimetic systems, we measured the intrinsic fluorescence of Trp-1 upon partition with LUVs (large unilamellar vesicles) of different compositions. Briefly, the mixtures of POPC/POPG (70%/30% w/w) LUVs were used to mimic anionic membranes and POPC only to mimic zwitterionic membranes. […] The mole fraction partition constants Kx were calculated from the partition isotherms as previously described. Figure 2 reports the partition isotherms for the titration of myristoylated and non-myristoylated peptides with POPC and POPC/POPG vesicles.
The values of Kx for all peptides are reported in Table 2 together with ΔG values, calculated using the expression ΔG = −RT lnKx, and the selectivity ratio defined as the ratio between partition constants determined in anionic and zwitterionic membranes. Higher values of the selectivity ratio represent a preference of the peptide for anionic vesicles, while lower values indicate a preference for the zwitterionic one.
The lipids POPC (1-palmitoyl-2-oleoyl-sn-glycero-3-phosphocholine) and POPG (1-palmitoyl-2-oleoyl-sn-glycero-3-phosphoglycerol) were purchased from Avanti Polar Lipids (Alabaster, AL, USA) and used without further purification. LUVs (Large Unilamellar Vesicles) were prepared as previously reported. Briefly, appropriate amounts of lipids were dissolved in chloroform/methanol 9:1. The solvent was then removed by rotary evaporation and samples were placed overnight under a high vacuum. The lipid film was then hydrated by adding 1 mL of buffer (20 mM phosphate buffer at pH 7.4 with 150 mM NaCl and 0.8 mM EDTA) and then subjected to 5 freeze–thaw cycles and vortexed. The multilamellar vesicles (MLVS) were extruded through a polycarbonate membrane with pores of 100 nm by an Avanti polar mini extruder, and the obtained LUVs were used within 48 h of preparation. LUVs were composed of 100% POPC and a 70%/30% (w/w) combination of POPC/POPG. The final concentration of the lipid was 10 mM.
All the steady-state fluorescence measurements were carried out using a Perkin Elmer LS55 fluorescence spectrophotometer. All the experiments were conducted at 298 K in a thermostatic cell holder and in 20 mM phosphate buffer at pH 7.4 containing 0.8 mM EDTA and 150 mM NaCl unless otherwise specified.
Since all peptides contain tryptophan, fluorescence spectroscopy is an appropriate tool for studying these molecules. Peptide partitioning between buffer and lipid vesicles was monitored by measuring the increase in tryptophan fluorescence upon the addition of LUVs. Trp fluorescence spectra were recorded with λexc = 295 nm and scanning the emission between 305 and 400 nm. Measurements were carried out with a cross-oriented configuration of polarizers (polem = 0° and polexc = 90°). Briefly, a 1.0 μM solution of the peptide was titrated with LUVs of different compositions (POPC 100% and 70%/30% POPC/POPG) as previously described. The background effects of vesicles and buffer were subtracted from each spectrum. All the fluorescence emissions were corrected for dilution. Mole fraction partition coefficients Kx were calculated from the fraction of the partitioned peptide fp as previously described. The fraction of the partitioned peptide fp is given by the following equation [53] (6) fp=Kx[L]/[W]+Kx[L] where Kx is the mole fraction partition constant, and [L] and [W] are the molar concentrations of lipids and water, respectively.

Series [3] deals with C. auris clinical isolates. Format: cell-based, Candida auris. As to conditions: for MIC: CLSI broth microdilution, RPMI 1640. As for the experimental part:
The antifungal activity of AMPs was determined against 50 clinical isolates, 10 for each of the following Candida species: C. albicans, C. tropicalis, C. glabrata, C. parapsilosis, and C. auris. The latter were derived from patients with positive blood cultures in four hospitals in India, with known resistance profiles to fluconazole, voriconazole, and echinocandins. Yeast cells were grown in Brain Heart Infusion (BHI) medium (Sigma-Aldrich, Gillingham, UK) for 16 h at 37 °C in a 150-rpm orbital shaker. Cells were then sub-inoculated in a fresh BHI medium and grown to an optical density (OD) of 0.3. The turbidity of the inoculum was adjusted to 0.5 McFarland and diluted 1:500 in RPMI 1640 broth, corresponding to around […].
Minimal inhibitory concentrations (MICs) were determined by Broth microdilution susceptibility tests, according to The Clinical and Laboratory Standards Institute (CLSI) international guidelines. A fungal suspension of 0.5 MacFarland was diluted 1:500 in RPMI 1640 broth and incubated in 96 multi-well plates containing AMPs at different concentrations ranging from 0.125 to 256 μg/mL. In this range of concentration, lipopeptides were completely soluble. […] The MIC90 represents the value at which ≥90% of the strains within a test population were inhibited.

Converted amounts (≈) assume the structure as drawn. Like-named read-outs stand apart in the source and are kept apart here. Where a SMILES comes first, the peptide text is derived from it. The star is where a group is joined. Myristoyl = CCCCCCCCCCCCCC(=O)* A value given as a limit tells only on which side of the number the result lay.

In the case of `CCCCCCCCCCCCCC(=O)N[C@@H](Cc1c[nH]c2ccccc12)C(=O)N[C@@H](CCCNC(=N)N)C(=O)NCC(=O)N[C@H](C(=O)N[C@H](C(=O)N[C@@H](CCCCN)C(=O)N[C@H](C(=O)N[C@H](C(=O)N[C@@H](CCCCN)C(=O)N[C@@H](CCCCN)C(=O)N[C@H](C(=O)O)C(C)C)C(C)C)C(C)C)[C@@H](C)O)[C@@H](C)CC` [Myr-B] (Myristoyl-WRGITKVVKKV-OH; C-terminus assumed), in series [1], the “critical micellar concentration (CMC)” value is 5.1 ± 0.8 µM. Besides, the figures for the “KX (mole fraction partition constant)” value in series [2] (POPC LUVs) and in series [2] (POPC/POPG 70%/30% LUVs) were “(4.7 ± 0.6) × 10^5” and “(1.7 ± 0.2) × 10^6”, respectively. Also, the ΔG in series [2] (POPC LUVs) was -7.737 kcal/mol; in series [2] (POPC/POPG LUVs), -8.499 kcal/mol. Moreover, the “Selectivity Ratio” value in series [2] was found to be 3.62. The same compound displayed an MIC90 in series [3] (clinical isolates, 16 h) of 20 µM. Further, the “MIC (Range)” value in series [3] (clinical isolates, 16 h) is 16 to 32 µg/mL. Besides, the MIC in series [3] (isolate Candida Auris 1) came out at 8 µg/mL (≈ 5.25 µM); in series [3] (isolate Candida Auris 2), 8 µg/mL (≈ 5.25 µM); in series [3] (isolate Candida Auris 3), 16 µg/mL (≈ 10.5 µM); in series [3] (isolate Candida Auris 4), 32 µg/mL (≈ 21 µM); in series [3] (isolate Candida Auris 5), 32 µg/mL (≈ 21 µM); in series [3] (isolate Candida Auris 6), 16 µg/mL (≈ 10.5 µM). Also, the MIC in series [3] (isolate Candida Auris 7) came to 16 µg/mL (≈ 10.5 µM); in series [3] (isolate Candida Auris 8), 16 µg/mL (≈ 10.5 µM); in series [3] (isolate Candida Auris 9) it was 32 µg/mL (≈ 21 µM); in series [3] (isolate Candida Auris 10), 32 µg/mL (≈ 21 µM).
For the compound `CCCCCCCCCCCCCC(=O)N[C@@H](Cc1c[nH]c2ccccc12)C(=O)N[C@@H](Cc1ccccc1)C(=O)NCC(=O)N[C@@H](CCCCN)C(=O)N[C@@H](CC(C)C)C(=O)N[C@@H](Cc1ccc(O)cc1)C(=O)N[C@@H](CCCNC(=N)N)C(=O)NCC(=O)N[C@H](C(=O)N[C@H](C(=O)N[C@@H](CCCCN)C(=O)O)[C@@H](C)O)[C@@H](C)CC` [Myr-A] (Myristoyl-WFGKLYRGITK-OH; C-terminus assumed), the “critical micellar concentration (CMC)” value in series [1] is 4.7 ± 0.8 µM. Moreover, the “KX (mole fraction partition constant)” value in series [2] (POPC LUVs) is “(1.03 ± 0.04) × 10^5”; in series [2] (POPC/POPG 70%/30% LUVs), “(4.3 ± 0.8) × 10^5”. Moreover, the ΔG in series [2] (POPC LUVs) is -6.831 kcal/mol; in series [2] (POPC/POPG LUVs) it was -7.684 kcal/mol. Moreover, in series [2], the “Selectivity Ratio” value was found to be 4.17. In series [3] (clinical isolates, 16 h), this compound displayed an MIC90 of more than 256 µg/mL. The MIC in series [3] (isolate Candida Auris 1), in series [3] (isolate Candida Auris 2), in series [3] (isolate Candida Auris 3), in series [3] (isolate Candida Auris 4), in series [3] (isolate Candida Auris 5) and in series [3] (isolate Candida Auris 6) was more than 256 µg/mL in each case. For the same compound, the MIC in series [3] (isolate Candida Auris 7), in series [3] (isolate Candida Auris 8), in series [3] (isolate Candida Auris 9) and in series [3] (isolate Candida Auris 10) was more than 256 µg/mL in each case.
Consider `CCCCCCCCCCCCCC(=O)N[C@@H](Cc1c[nH]c2ccccc12)C(=O)N[C@H](C(=O)N[C@H](C(=O)N[C@@H](CCCCN)C(=O)N[C@@H](CCCCN)C(=O)N[C@H](C(=O)N[C@@H](CCCCN)C(=O)NCC(=O)N[C@@H](CC(C)C)C(=O)N[C@@H](CC(C)C)C(=O)N[C@@H](CCCCN)C(=O)O)C(C)C)C(C)C)C(C)C` [Myr-C] (Myristoyl-WVVKKVKGLLK-OH; C-terminus assumed), for which, in series [1], the “critical micellar concentration (CMC)” value was 5.1 ± 0.4 µM. Besides, the figures for the “KX (mole fraction partition constant)” value in series [2] (POPC LUVs) and in series [2] (POPC/POPG 70%/30% LUVs) were “(4.9 ± 0.3) × 10^5” and “(1.2 ± 0.2) × 10^6”, respectively. In addition, the ΔG in series [2] (POPC LUVs) was -7.753 kcal/mol; in series [2] (POPC/POPG LUVs) it was -8.293 kcal/mol. Also, the “Selectivity Ratio” value in series [2] came to 2.45. Also, the MIC in series [3] (isolate Candida Auris 1) worked out at 16 µg/mL (≈ 10.6 µM); in series [3] (isolate Candida Auris 2), 16 µg/mL (≈ 10.6 µM); in series [3] (isolate Candida Auris 3) it was 32 µg/mL (≈ 21.2 µM); in series [3] (isolate Candida Auris 4) it was 32 µg/mL (≈ 21.2 µM); in series [3] (isolate Candida Auris 5), 64 µg/mL (≈ 42.4 µM); in series [3] (isolate Candida Auris 6), 32 µg/mL (≈ 21.2 µM). Besides, the MIC stood at 32 µg/mL (≈ 21.2 µM) in series [3] (isolate Candida Auris 7), 32 µg/mL (≈ 21.2 µM) in series [3] (isolate Candida Auris 8), 16 µg/mL (≈ 10.6 µM) in series [3] (isolate Candida Auris 9) and 32 µg/mL (≈ 21.2 µM) in series [3] (isolate Candida Auris 10).
